According to patent US10294202B2, “Pyrrolidinones as herbicides” (FMC Corporation, priority 2013, dated 2019):

Tests used:
wheat = assay: Test A pre-/postemergence herbicide test; format: in vivo, Triticum aestivum
In short: (§1)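 Planted in loam–sand blend; treated the same day preemergence by directed soil spray, while separately grown plants at one- to two-leaf stage got postemergence spray. Compared visually with untreated controls after approximately 10 days; 100 means complete control.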

kochia = assay: Test C pre-/postemergence herbicide test; format: in vivo, Kochia scoparia
In short: (§2)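 Test compounds, formulated in a surfactant-containing non-phytotoxic solvent blend, are applied to seeded loam/sand soil (preemergence) and to young plants at the 1- to 4-leaf stage in peat-based medium (postemergence). Plants stay 13 to 15 days under greenhouse conditions, then are scored visually relative to controls, 0 = no effect, 100 = complete control.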

morningglory = assay: Test A pre-/postemergence herbicide test; format: in vivo, Ipomoea spp.; details: for Morningglory plant response rating: Preemergence, visual rating on 0 to 100 scale (0 no effect, 100 complete control)
In short: as §1

chickweed = assay: Test C postemergence herbicide test; format: in vivo, Stellaria media
In short: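 Response is scored visually on a 0–100 scale (100 = complete control) relative to untreated controls, 13 to 15 days after treatment. Plants were sprayed postemergence at the 1- to 4-leaf stage (2 to 18 cm tall) and kept in a greenhouse.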

crabgrass, large [1] = assay: Test A pre-/postemergence herbicide test; format: in vivo, Digitaria sanguinalis
In short: as §1

crabgrass, large [2] = assay: Test C pre-/postemergence herbicide test; format: in vivo, Digitaria sanguinalis
In short: as §2

[3] = Postemergence, 1000 g ai/ha, 0 to 100 scale (0 no effect, 100 complete control)
[4] = Preemergence, 1000 g ai/ha, visual rating on 0 to 100 scale (0 no effect, 100 complete control), approx. 10 days
[5] = Postemergence, 31 g ai/ha, scale 0 (no effect) to 100 (complete control)
[6] = Postemergence, 62 g ai/ha, scale 0 to 100 (0 no effect, 100 complete control)
[7] = Postemergence, 125 g ai/ha, scale 0 to 100 (0 no effect, 100 complete control)
[8] = Postemergence, 250 g ai/ha, scale 0 to 100 (0 no effect, 100 complete control)
[9] = Preemergence, 62 g ai/ha, scale 0 to 100
[10] = Preemergence, 125 g ai/ha, scale 0 to 100 (0 no effect, 100 complete control)
[11] = 31 g ai/ha, scale 0 (no effect) to 100 (complete control)
[12] = 62 g ai/ha, scale 0 to 100 (0 no effect, 100 complete control)
[13] = 125 g ai/ha, scale 0 to 100 (0 no effect, 100 complete control)
[14] = 250 g ai/ha, scale 0 to 100 (0 no effect, 100 complete control)
[15] = Postemergence, 125 g ai/ha, 0 to 100 scale, 0 no effect, 100 complete control
[16] = Postemergence, 500 g ai/ha, 0 to 100 scale (0 no effect, 100 complete control)
[17] = Preemergence, 125 g ai/ha, visual rating on 0 to 100 scale (0 no effect, 100 complete control)
[18] = preemergence, 500 g ai/ha, 0 to 100 scale
[19] = Preemergence, 31 g ai/ha, scale 0 to 100, 0 is no effect and 100 is complete control
[20] = Postemergence, 125 g ai/ha, visual rating on 0 to 100 scale (0 no effect, 100 complete control), approx. 10 days
[21] = Postemergence, 31 g ai/ha, scale 0 to 100 (0 no effect, 100 complete control)
[22] = Postemergence, 62 g ai/ha, scale 0 (no effect) to 100 (complete control)
[23] = 31 g ai/ha, scale 0 to 100 (0 no effect, 100 complete control)
[24] = 62 g ai/ha, scale 0 (no effect) to 100 (complete control)
[25] = Preemergence, 62 g ai/ha, scale 0 to 100 (0 no effect, 100 complete control)

Compound	Plant response rating, Kochia (kochia; [5])	Plant response rating, Kochia (kochia; [6])	Plant response rating, Kochia (kochia; [7])	Plant response rating, Kochia (kochia; [8])	Plant response rating, Chickweed (chickweed; [11])	Plant response rating, Chickweed (chickweed; [12])	Plant response rating, Chickweed (chickweed; [13])	Plant response rating, Chickweed (chickweed; [14])	Plant response rating, Crabgrass, Large (crabgrass, large [2]; [5])	Plant response rating, Crabgrass, Large (crabgrass, large [2]; [6])	Plant response rating, Crabgrass, Large (crabgrass, large [2]; [7])	Plant response rating, Crabgrass, Large (crabgrass, large [2]; [8])	Plant response rating, Crabgrass, Large (crabgrass, large [2]; [9])	Plant response rating, Crabgrass, Large (crabgrass, large [2]; [10])	Plant response rating, Wheat (wheat; [15])	Plant response rating, Wheat (wheat; [16])	Wheat plant response rating (wheat; [17])	Plant response rating, Wheat (wheat; [18])	Crabgrass, Large plant response rating (crabgrass, large [2]; [19])	Plant response rating (scale of 0 to 100), Crabgrass, Large (crabgrass, large [2]; Preemergence, 250 g ai/ha)	further results
O=C1NCC(c2cc(F)c(F)c(F)c2)C1C(=O)Nc1ccccc1F (racemic) [Compound 34]	5	5	5	5	0	0	5	5	0	30	40	60	98	100							Plant response rating, Wheat (wheat; [3]): 70; Plant response rating, Wheat (wheat; [4]): 60; Plant response rating, Kochia (kochia; [9]): 0; Plant response rating, Kochia (kochia; [10]): 0; Plant response rating, Morningglory (morningglory; [3]): 20; Plant response rating, Crabgrass, Large (crabgrass, large [1]; [3]): 90; Plant response rating, Crabgrass, Large (crabgrass, large [1]; [4]): 90; Crabgrass, Large plant response rating (crabgrass, large [2]; Preemergence, 31 g ai/ha, scale 0 to 100 (0 no effect, 100 complete control)): 95; Plant response rating, Crabgrass, Large (crabgrass, large [2]; Preemergence, 250 g ai/ha, scale 0 to 100 (0 no effect, 100 complete control)): 100
O=C1NCC(c2ccc(F)c(C(F)(F)F)c2)C1C(=O)Nc1ccccc1F (racemic) [Compound 76]	40	50	50	65	40	40	65	80	0	50	70	75	98	100	50	60	0	0	98	100	Plant response rating, Morningglory (morningglory; [15]): 20; Plant response rating, Morningglory (morningglory; [16]): 40; Morningglory plant response rating (morningglory; 125 g ai/ha): 0; Plant response rating, Morningglory (morningglory; [18]): 50; Plant response rating, Crabgrass, Large (crabgrass, large [1]; [15]): 90; Plant response rating, Crabgrass, Large (crabgrass, large [1]; [16]): 90; Crabgrass, Large plant response rating (crabgrass, large [1]; [17]): 90; Plant response rating, Crabgrass, Large (crabgrass, large [1]; [18]): 90
O=C1NCC(c2ccccc2)C1C(=O)Nc1ccccc1F (racemic) [Compound 81]	0	0	0	0	0	0	0	0	0	0	3	7	75	90	0	0	0	20	50	95	Plant response rating, Morningglory (morningglory; [15]): 0; Plant response rating, Morningglory (morningglory; [16]): 0; Morningglory plant response rating (morningglory; 125 g ai/ha): 0; Plant response rating, Morningglory (morningglory; [18]): 20; Plant response rating, Crabgrass, Large (crabgrass, large [1]; [15]): 50; Plant response rating, Crabgrass, Large (crabgrass, large [1]; [16]): 80; Crabgrass, Large plant response rating (crabgrass, large [1]; [17]): 80; Plant response rating, Crabgrass, Large (crabgrass, large [1]; [18]): 90
CN1CC(c2ccc(F)c(F)c2)C(C(=O)Nc2ccccc2F)C1=O (stereo not drawn) [Compound 302]			0	60			5	70			70	85		100		50			95	100	Plant response rating, Wheat (wheat; [20]): 0; Plant response rating, Kochia (kochia; [21]): 0; Plant response rating, Kochia (kochia; [22]): 0; Plant response rating, Chickweed (chickweed; [23]): 0; Plant response rating, Chickweed (chickweed; [24]): 0; Plant response rating, Crabgrass, Large (crabgrass, large [2]; [21]): 0; Plant response rating, Crabgrass, Large (crabgrass, large [2]; [22]): 50; Crabgrass, Large plant response rating (crabgrass, large [2]; [25]): 98
O=C1NCC(c2cccc(Br)c2)C1C(=O)Nc1cccc(F)c1F (stereo not drawn) [Compound 309]				75			65	70			60	65				60			90	98	Plant response rating, Wheat (wheat; [20]): 40; Plant response rating, Kochia (kochia; [21]): 5; Plant response rating, Kochia (kochia; [22]): 5; Plant response rating, Chickweed (chickweed; [23]): 30; Plant response rating, Chickweed (chickweed; [24]): 50; Plant response rating, Crabgrass, Large (crabgrass, large [2]; [21]): 0; Plant response rating, Crabgrass, Large (crabgrass, large [2]; [22]): 30; Crabgrass, Large plant response rating (crabgrass, large [2]; [25]): 90; Plant response rating, Crabgrass, Large (crabgrass, large [2]; Preemergence, 125 g ai/ha, scale 0 to 100): 95
